Data on eleven compounds can be found in patent publication US9187471B2, “Pyrido [4,3-b] indole and pyrido [3,4-b] indole derivatives and methods of use” (Medivation Technologies, Inc., priority 2010, dated 2015).

Structures are written as SMILES.

Experiment [1] deals with T1, human recombinant dopamine D2L receptor (Homo sapiens, UniProt P14416).
T1 construct: expressed in transfected cells; host or cells: CHO
The experiment is described as follows: Dopamine D2L radioligand binding ([3H]Spiperone). Conditions: read-out: Dopamine D2L (1 μM), percent inhibition of specific binding; compound at 1 μM; 0.16 nM [3H]Spiperone. As to the method: Non-specific binding was estimated in the presence of 10 μM Haloperidol. Receptor proteins were filtered and washed, the filters were then counted to determine [^3H]Spiperone specifically bound.

In experiment [2] the target is T2, human recombinant serotonin (5-Hydroxytryptamine) 5-HT6 receptor (Homo sapiens, UniProt P50406).
T2 construct: expressed in transfected cells; host or cells: HeLa
The experiment is described as follows: Serotonin 5-HT6 radioligand binding ([3H]LSD). To be noted: compound at 0.1 μM; read-out: Inhibition of ligand binding, Serotonin 5-HT6 (percent inhibition of specific binding). An excerpt: Receptor proteins were filtered and washed, the filters were then counted to determine [3H]LSD specifically bound.

For experiment [3], the target named is T3, human recombinant serotonin (5-Hydroxytryptamine) 5-HT7 receptor (Homo sapiens, UniProt P34969).
T3 construct: expressed in transfected cells; host or cells: CHO
Kind of experiment: Serotonin 5-HT7 radioligand binding ([3H]LSD). To be noted: compound at 0.1 μM; read-out: Inhibition of ligand binding, Serotonin 5-HT7 (percent inhibition of specific binding). As to the method: Lysergic acid diethylamide (LSD) for 120 min. at 25° C. […] Receptor proteins were filtered and washed, the filters were then counted to determine [^3H]LSD specifically bound.

The target of experiment [4] is T4, human recombinant histamine H1 receptor (Homo sapiens, UniProt P35367).
T4 construct: expressed in transfected cells; host or cells: CHO-K1
The experiment is described as follows: Histamine H1 radioligand binding ([3H]Pyrilamine). Conditions: read-out: Histamine H1 Binding (1 μM), percent inhibition of specific binding; compound at 1 μM; 1.2 nM [3H]Pyrilamine. As to the method:
To evaluate in radioligand binding assays the activity of compounds of the invention, human recombinant histamine H1 receptor expressed in Chinese hamster ovary (CHO) K1 cells (De Backer, M. et al, Biochem. Biophys. Res. Comm. 197(3):1601, 1993) in a modified Tris-HCl buffer (50 mM Tris-HCl, pH 7.4, 2 mM MgCl2, 100 mM NaCl, 250 mM Sucrose) was used. […] Non-specific binding was estimated in the presence of 1 μM Pyrilamine. Receptor proteins were filtered and washed, the filters were then counted to determine [^3H]Pyrilamine specifically bound. […] Biochemical assay results are presented as the percent inhibition of specific binding in Table 2.

Experiment [5] deals with T5, human recombinant serotonin (5-Hydroxytryptamine) 5-HT2C receptor (Homo sapiens, UniProt P28335).
T5 construct: expressed in transfected cells; host or cells: CHO-K1
T5 sequence (P28335 33-458): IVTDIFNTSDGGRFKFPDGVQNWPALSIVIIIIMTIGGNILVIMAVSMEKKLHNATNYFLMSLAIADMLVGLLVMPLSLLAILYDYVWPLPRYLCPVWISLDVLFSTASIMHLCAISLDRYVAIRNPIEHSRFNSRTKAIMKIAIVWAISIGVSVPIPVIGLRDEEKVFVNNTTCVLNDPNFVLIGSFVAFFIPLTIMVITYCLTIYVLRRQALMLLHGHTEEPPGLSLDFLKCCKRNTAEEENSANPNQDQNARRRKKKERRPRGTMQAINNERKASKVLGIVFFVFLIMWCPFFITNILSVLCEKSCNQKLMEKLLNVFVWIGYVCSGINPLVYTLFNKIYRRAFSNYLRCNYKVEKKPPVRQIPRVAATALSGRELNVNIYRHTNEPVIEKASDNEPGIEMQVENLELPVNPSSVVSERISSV
The experiment is described as follows: Serotonin 5-HT2C radioligand binding ([3H]Mesulergine). To be noted: compound at 0.1 μM; read-out: Inhibition of ligand binding, Serotonin 5-HT2C (percent inhibition of specific binding). The procedure:
Compounds of the invention were incubated with 1 nM [^3H]Mesulergine for 60 min at 25° C. Non-specific binding was estimated in the presence of 1 μM Mianserin. Receptor proteins were filtered and washed, the filters were then counted to determine [^3H]Mesulergine specifically bound.

In experiment [6] the target is T6, human recombinant serotonin (5-Hydroxytryptamine) 5-HT2A receptor (Homo sapiens, UniProt P28223).
T6 construct: expressed in transfected cells; host or cells: CHO-K1
Kind of experiment: Serotonin 5-HT2A radioligand binding ([3H]Ketanserin). Conditions: compound at 0.1 μM; read-out: Inhibition of ligand binding, Serotonin 5-HT2A (percent inhibition of specific binding). The procedure:
Compounds of the invention were incubated with 0.5 nM [^3H]Ketanserin for 60 min at 25° C. Non-specific binding was estimated in the presence of 1 μM Mianserin. Receptor proteins were filtered and washed, the filters were then counted to determine [^3H]Ketanserin specifically bound.

T4 sequence (P35367 whole entry): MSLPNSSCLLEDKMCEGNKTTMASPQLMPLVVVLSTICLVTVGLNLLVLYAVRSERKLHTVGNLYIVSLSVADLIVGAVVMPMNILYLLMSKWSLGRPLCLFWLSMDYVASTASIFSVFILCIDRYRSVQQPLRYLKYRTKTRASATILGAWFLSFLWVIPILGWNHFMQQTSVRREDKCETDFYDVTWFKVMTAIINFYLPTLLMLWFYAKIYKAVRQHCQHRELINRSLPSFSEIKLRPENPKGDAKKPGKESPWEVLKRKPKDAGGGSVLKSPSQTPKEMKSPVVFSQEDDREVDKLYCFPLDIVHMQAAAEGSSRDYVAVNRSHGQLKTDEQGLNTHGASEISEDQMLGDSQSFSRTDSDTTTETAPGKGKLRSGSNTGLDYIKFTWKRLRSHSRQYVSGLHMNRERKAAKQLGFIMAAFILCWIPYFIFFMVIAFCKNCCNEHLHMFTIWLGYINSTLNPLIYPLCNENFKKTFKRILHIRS
T2 sequence (P50406 whole entry): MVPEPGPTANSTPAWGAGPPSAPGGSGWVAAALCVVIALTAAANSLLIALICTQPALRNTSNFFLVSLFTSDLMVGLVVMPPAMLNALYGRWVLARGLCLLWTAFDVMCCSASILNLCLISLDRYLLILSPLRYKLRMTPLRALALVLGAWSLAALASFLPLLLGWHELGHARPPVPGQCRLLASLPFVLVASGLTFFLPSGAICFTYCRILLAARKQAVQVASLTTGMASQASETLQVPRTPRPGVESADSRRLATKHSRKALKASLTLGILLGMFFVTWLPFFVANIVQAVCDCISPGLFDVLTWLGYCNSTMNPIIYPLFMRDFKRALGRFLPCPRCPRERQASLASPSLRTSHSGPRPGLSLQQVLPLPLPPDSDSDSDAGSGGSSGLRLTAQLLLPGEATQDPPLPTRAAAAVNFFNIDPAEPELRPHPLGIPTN
T3 sequence (P34969 whole entry): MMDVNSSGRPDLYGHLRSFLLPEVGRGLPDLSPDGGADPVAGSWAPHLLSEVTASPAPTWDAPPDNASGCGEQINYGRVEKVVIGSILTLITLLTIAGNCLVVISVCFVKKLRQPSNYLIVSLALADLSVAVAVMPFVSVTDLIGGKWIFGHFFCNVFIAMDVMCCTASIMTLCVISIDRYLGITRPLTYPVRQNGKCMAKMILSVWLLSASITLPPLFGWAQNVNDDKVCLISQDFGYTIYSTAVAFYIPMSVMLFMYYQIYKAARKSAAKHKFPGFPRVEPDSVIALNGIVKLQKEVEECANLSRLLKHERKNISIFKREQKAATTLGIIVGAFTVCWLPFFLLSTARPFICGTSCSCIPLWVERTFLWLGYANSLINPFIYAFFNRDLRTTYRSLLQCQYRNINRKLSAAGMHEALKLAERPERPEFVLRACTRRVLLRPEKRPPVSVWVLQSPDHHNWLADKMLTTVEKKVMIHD
T6 sequence (P28223 whole entry): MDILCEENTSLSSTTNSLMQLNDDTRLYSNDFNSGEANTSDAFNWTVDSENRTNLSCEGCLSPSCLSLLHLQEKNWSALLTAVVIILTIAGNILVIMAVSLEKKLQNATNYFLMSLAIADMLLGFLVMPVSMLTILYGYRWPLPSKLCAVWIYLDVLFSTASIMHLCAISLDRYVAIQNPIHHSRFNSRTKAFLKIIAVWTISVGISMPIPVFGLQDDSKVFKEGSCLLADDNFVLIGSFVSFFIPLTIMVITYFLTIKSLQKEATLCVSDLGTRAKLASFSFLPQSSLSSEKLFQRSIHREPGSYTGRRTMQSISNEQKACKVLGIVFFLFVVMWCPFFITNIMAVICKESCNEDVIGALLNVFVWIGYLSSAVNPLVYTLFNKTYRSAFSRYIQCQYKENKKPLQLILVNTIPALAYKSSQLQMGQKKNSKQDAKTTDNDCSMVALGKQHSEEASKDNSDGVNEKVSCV
T1 sequence (P14416 whole entry): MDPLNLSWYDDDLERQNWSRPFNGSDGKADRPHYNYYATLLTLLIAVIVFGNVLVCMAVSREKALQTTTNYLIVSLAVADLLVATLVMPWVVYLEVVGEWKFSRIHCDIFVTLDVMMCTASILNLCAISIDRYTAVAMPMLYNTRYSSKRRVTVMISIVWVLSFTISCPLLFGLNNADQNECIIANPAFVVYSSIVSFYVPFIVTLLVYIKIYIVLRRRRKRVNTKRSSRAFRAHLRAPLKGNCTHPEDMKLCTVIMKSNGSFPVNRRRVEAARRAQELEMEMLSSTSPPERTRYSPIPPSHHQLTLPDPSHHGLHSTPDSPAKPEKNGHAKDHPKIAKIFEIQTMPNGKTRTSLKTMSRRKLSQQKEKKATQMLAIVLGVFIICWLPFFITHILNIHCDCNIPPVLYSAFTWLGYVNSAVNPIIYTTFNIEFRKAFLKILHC

On to `Cc1ccc2c(c1)c1c(n2-c2cscn2)CCN(C)C1` [Compound 19, 2,8-dimethyl-5-thiazol-4-yl-2,3,4,5-tetrahydro-1H-pyrido[4,3-b]indole], for which the inhibition at 1 µM was 14% in experiment [1] and 59% in experiment [4]. Further, the inhibition at 0.1 µM in experiment [2] stood at 15%; in experiment [3], 51%; in experiment [5] it was 71%; in experiment [6], 64%.
In the case of `Cc1ccc2c(c1)c1c(n2-c2cscc2-c2ccncc2)CCN(C)C1` [Compound 20, 2,8-dimethyl-5-(4-pyridin-4-yl-thiophen-3-yl)-2,3,4,5-tetrahydro-1H-pyrido[4,3-b]indole], the inhibition at 1 µM amounted to 9% in experiment [1] and 42% in experiment [4]. The inhibition at 0.1 µM was found to be 18% in experiment [2], 97% in experiment [3], 85% in experiment [5] and 78% in experiment [6].
On to `Cc1ccc2c(c1)c1c(n2-c2cscc2-c2ccccc2)CCN(C)C1` [Compound 21, 2,8-dimethyl-5-(4-phenyl-thiophen-3-yl)-2,3,4,5-tetrahydro-1H-pyrido[4,3-b]indole], for which the inhibition at 1 µM is 54% in experiment [1] and 86% in experiment [4]. The inhibition at 0.1 µM came out at 62% in experiment [2], 99% in experiment [3], 96% in experiment [5] and 90% in experiment [6].
Regarding `Cc1ccc2c(c1)c1c(n2-c2cscc2-c2cccnc2)CCN(C)C1` [Compound 22, 2,8-dimethyl-5-(4-pyridin-3-yl-thiophen-3-yl)-2,3,4,5-tetrahydro-1H-pyrido[4,3-b]indole], the results for the inhibition at 1 µM in experiment [1] and in experiment [4] were 39% and 85%, respectively. Further, the inhibition at 0.1 µM in experiment [2] was 14%; in experiment [3], 91%; in experiment [5] it was 80%; in experiment [6], 75%.
As to `Cc1ccc2c(c1)c1c(n2-c2cscc2-c2ccc(F)cc2)CCN(C)C1` [Compound 23], the inhibition at 1 µM in experiment [1] stood at 44%; in experiment [4], 72%. The inhibition at 0.1 µM was found to be 45% in experiment [2], 98% in experiment [3], 90% in experiment [5] and 83% in experiment [6].
As for `Cc1ccc2c(c1)c1c(n2-c2ccc3ncccc3c2)CCN(C)C1` [Compound 24, 2,8-dimethyl-5-quinolin-6-yl-2,3,4,5-tetrahydro-1H-pyrido[4,3-b]indole], the inhibition at 1 µM in experiment [1] came out at 45%; in experiment [4], 10%. For the same compound, the inhibition at 0.1 µM in experiment [2] turned out to be 12%; in experiment [3], 25%; in experiment [5], 66%; in experiment [6], 72%.
With `CN1CCc2c(c3cc(Cl)ccc3n2-c2cscc2-c2ccc(F)cc2)C1` [Compound 25], the inhibition at 1 µM in experiment [1] was 39%; in experiment [4], 80%. Moreover, the inhibition at 0.1 µM in experiment [2] is 56%; in experiment [3], 94%; in experiment [5], 91%; in experiment [6] it was 81%.
For `CN1CCc2c(c3cc(Cl)ccc3n2-c2cscc2-c2ccccc2)C1` [Compound 26], the inhibition at 1 µM came to 47% in experiment [1] and 91% in experiment [4]. Also, the inhibition at 0.1 µM in experiment [2] amounted to 61%; in experiment [3], 95%; in experiment [5] it was 96%; in experiment [6], 86%.
As to `CN1CCc2c(c3cc(Cl)ccc3n2-c2cscc2-c2cccnc2)C1` [Compound 27], the inhibition at 1 µM came to 26% in experiment [1] and 76% in experiment [4]. In addition, the inhibition at 0.1 µM in experiment [2] was determined as 30%; in experiment [3], 94%; in experiment [5], 72%; in experiment [6], 67%.
As to `CN1CCc2c(c3cc(Cl)ccc3n2-c2cscc2-c2ccncc2)C1` [Compound 28], the inhibition at 1 µM in experiment [1] worked out at 20%; in experiment [4], 46%. The inhibition at 0.1 µM in experiment [2] was 45%; in experiment [3] it was 95%; in experiment [5] it was 76%; in experiment [6] it was 68%.
As for `CN1CCc2c(c3cc(Cl)ccc3n2-c2ccsc2)C1` [Compound 29, 8-chloro-2-methyl-5-thiophen-3-yl-2,3,4,5-tetrahydro-1H-pyrido[4,3-b]indole], the inhibition at 1 µM in experiment [1] was 63%; in experiment [4] it was 90%. The inhibition at 0.1 µM in experiment [2] worked out at 101%; in experiment [3] it was 63%; in experiment [5], 98%; in experiment [6], 101%.
